{"source": "patent US8022235B2", "about": "“Compositions of phospholipid ether boronic acids and esters and methods for their synthesis and use” (Cellectar, Inc., priority 2007, dated 2011)", "key": {"[1]": {"tested_on": "A549 human non-small cell lung cancer xenografts", "assay": "Single-dose 125I-NM404 treatment, tumor volume, A549 xenografts", "format": "in vivo, SCID mice", "settings": "unlabeled compound (control group), 10-week assessment", "source_text": "FIG. 3 illustrates antitumor effect of single-dose treatment with ^125I-125-NM404 at doses of 50 (∘), 150 (□), 250 (⋄) and 500 (∘) μCi in SCID mice bearing A549 human non-small cell lung cancer xenografts. In FIG. 3, control animals show rapidly growing tumors over the 10-week assessment period. […] Tumor volumes are stable and some tumors appear “collapsed” (the tumor surface has collapsed). Additionally, hair above the tumors fell off confirming substantial accumulation of radioactivity in these tumors.\nFIG. 4 is an image showing one of the tumor-bearing animals treated with 250 μCi of ^125I-NM404 at 4 weeks following injection. The hair above the tumor has fallen off, apparently due to the significant accumulation of radioactivity in the tumor. […] The measurement method for determining outer tumor dimensions may have underestimated tumor volume response following dosing with ^125I-NM404;\nThe inventors have previously shown that ^125I-labeled PLE analogs such as NM404 are effective in targeting tumor therapies to tumor cells following single injection and fractionated dosing. For assessment of efficacy of ^125I-NM404 treatment, assessments of tumor volume were made until 10 weeks post-injection or until no animal in the control group was alive, whatever came first. Summarizing the results, control animals show rapidly growing tumors over the 10-week assessment period. See, FIGS. 2 and 3. […] Tumor volumes are stable and the same tumors appear “collapsed” (the tumor surface has caved in). Additionally, the hair above the tumors fell off confirming substantial accumulation of radioactivity in these tumors, FIG. 4. […] (See also, for example, U.S. patent application Ser. No. 11/671,403 hereby incorporated in its entirety for all purposes.)"}, "Melanoma": {"tested_on": "Melanoma", "assay": "Imaging and tissue distribution, tumor model", "format": "in vivo, Mouse xenograft", "settings": "Adenocarcinoma", "quoted_text": "(§2) Imaging and tissue distribution studies performed in mouse models aimed at determining the uptake characteristics in a wide variety of tumor models are summarized in Table 1, below."}, "Mammary Hyperplasia": {"tested_on": "Mammary Hyperplasia", "assay": "Imaging and tissue distribution, tumor model", "format": "in vivo, Endogenous Mouse", "settings": "Alveolar Hyperplasia"}, "[2]": {"assay": "Toxicology studies of unlabeled NM404 in rats", "format": "in vivo", "settings": "for toxic effects: 14 days observation", "source_text": "In preparation for human clinical trials, unlabeled NM404 was subjected to independent (University of Buffalo Toxicology Research Center) acute toxicity evaluation at 1200 times the anticipated imaging mass dose in rats and rabbits. […] Due to its selective tumor uptake and retention properties in a variety of rodent tumor models and subsequent excellent safety profile in rats and rabbits, NM404 was selected to undergo initial human pharmacokinetic evaluation in non-small cell lung cancer (NSCLC) patients. Patients underwent planar gamma-camera scintigraphy after receiving an injection of ^131I-NM404 (<1 mCi).\nFormal toxicology studies of NM404 in male rats and rabbits were performed at the Toxicology Research Center of the State University of New York at Buffalo under the direction of Dr. Paul Kostyniak. Drug vehicle and drug product were provided to Dr. Kostyniak by Dr. Raymond Counsell of the University of Michigan for testing as described in the appended synopses of Study 27 and Study 28. […] Human safety studies of unlabeled NM404 were initiated in normal male humans at a mass of 10 times the anticipated imaging dose and about 21 times the anticipated therapy dose. […] This toxicology study was performed under GLP conditions.\nSubsequently, the inventors initiated a toxicology study of unlabeled NM404 in female rats and rabbits (Study 31 and Study 32) at the Toxicology Research Center at SUNY-Buffalo in order to expand the patient population to be studied in the NSCLC Phase 1 clinical trial. […] Human safety studies of unlabeled NM404 were initiated in normal female humans at a mass of 10 times the initially anticipated imaging dose and about 21 times the anticipated therapy dose. […] This toxicology study was performed under GLP conditions."}, "Min Mouse Intestinal": {"tested_on": "Min Mouse Intestinal", "assay": "Imaging and tissue distribution, tumor model; therapeutic responses at imaging doses", "format": "in vivo", "source_text": "(§1) During the course of mouse tumor uptake and retention studies with “imaging” doses (15-20 μCi/20 g mouse) of ^125I-labeled NM404, several apparent therapeutic responses have been observed (unpublished results). […] Some of these animals also lost all hair above larger mammary tumors at around 8 days after injection. Moreover, these mice also get intestinal tumors and usually suffer from intestinal bleeding resulting in severe anemia, which renders their feet white. […] Another compelling example of tumor regression is illustrated in FIG. 13. Two litter mates each received SCC1 and SCC6 xenografts in their left and right flanks, respectively. One mouse received a single injection of ^125I-NM404 (20 μCi). […] These coincidental findings were reconfirmed in two separate age-matched groups each involving more than 6 mice."}, "albumin fraction": {"target": "T1, albumin fraction (Rattus norvegicus, UniProt P02770)", "T1 construct": "plasma was isolated from Walker-256 tumor-bearing rats; from tissue; host or cells: plasma of Walker-256 tumor-bearing rats", "T1 sequence (P02770 25-608)": "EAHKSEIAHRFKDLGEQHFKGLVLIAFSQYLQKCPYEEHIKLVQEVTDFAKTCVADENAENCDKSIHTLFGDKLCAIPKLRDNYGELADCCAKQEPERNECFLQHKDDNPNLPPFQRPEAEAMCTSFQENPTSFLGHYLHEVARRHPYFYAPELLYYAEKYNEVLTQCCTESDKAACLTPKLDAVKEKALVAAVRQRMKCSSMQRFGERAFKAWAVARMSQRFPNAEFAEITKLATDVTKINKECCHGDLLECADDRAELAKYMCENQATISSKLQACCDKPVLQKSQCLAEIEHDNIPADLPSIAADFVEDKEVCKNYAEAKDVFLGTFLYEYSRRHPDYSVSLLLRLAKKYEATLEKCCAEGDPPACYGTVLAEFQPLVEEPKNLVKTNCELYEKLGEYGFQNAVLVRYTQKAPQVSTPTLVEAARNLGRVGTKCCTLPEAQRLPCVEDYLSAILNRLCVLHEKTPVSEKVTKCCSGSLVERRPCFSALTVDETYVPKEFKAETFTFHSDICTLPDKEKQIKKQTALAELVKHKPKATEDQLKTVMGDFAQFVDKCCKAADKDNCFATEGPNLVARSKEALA", "assay": "PAGE analysis of plasma radioactivity distribution after iodine-125 labeled 1", "format": "in vivo, Walker-256 tumor-bearing rats", "settings": "plasma 7 days after administration", "source_text": "In order to examine the transport properties of PLE analogs, plasma was isolated from Walker-256 tumor-bearing rats 7 days after administration of iodine-125 labeled 1. The distribution of radioactivity in the plasma compartment of a rat receiving 1 (NM404) was studied."}, "Adenomatous Polyp": {"tested_on": "Adenomatous Polyp", "assay": "Imaging and tissue distribution, tumor model", "format": "in vivo, Spontaneous Mouse", "settings": "Adenoma"}, "Lung NCI H-69 (Oat Cell)": {"tested_on": "Lung NCI H-69 (Oat Cell)", "assay": "Imaging and tissue distribution, tumor model", "format": "in vivo, Nude Mouse", "settings": "Adenocarcinoma"}, "Subcutaneous CT-26": {"tested_on": "Subcutaneous CT-26", "assay": "Imaging and tissue distribution, tumor model", "format": "in vivo, Mouse xenograft", "settings": "Colorectal adenocarcinoma", "quoted_text": "as §2"}, "[3]": {"tested_on": "spontaneous murine lung tumors", "assay": "Bioscan imaging of spontaneous lung tumor", "format": "in vivo, ApcMin mouse", "settings": "125I-NM404, image 4 days post injection, 2 mm tumor"}, "[4]": {"tested_on": "mouse intestinal adenocarcinoma model", "assay": "Therapeutic responses at imaging doses, aggressive intestinal model", "format": "in vivo", "settings": "12 days following administration, ^125I-labeled", "source_text": "as §1"}, "Ovarian HTB-77": {"tested_on": "Ovarian HTB-77", "assay": "Imaging and tissue distribution, tumor model", "format": "in vivo, Nude Mouse", "settings": "Adenocarcinoma"}, "[5]": {"tested_on": "human PC-3 prostate tumor xenografts", "assay": "Scintigraphy, microPET and tissue distribution in PC-3 tumor model", "format": "in vivo, SCID mice", "settings": "metastatic prostate tumor model, scintigraphy, FIG. 9"}}, "note": "Entries after “also recorded” stand apart in the source; their conditions may differ.", "data": [{"smiles": "C[N+](C)(C)CCOP(=O)([O-])OCCCCCCCCCCCCCCCCCCc1ccc(I)cc1", "note": "[NM404, 18-(p-iodophenyl)-octadecyl phosphocholine]", "values": [{"measurement": "effect on tumor growth", "setting": "[1]", "value": "no substantial effect on tumor growth"}, {"measurement": "Uptake", "setting": "Melanoma", "value": "Yes"}, {"measurement": "Uptake", "setting": "Mammary Hyperplasia", "value": "No"}, {"measurement": "acute toxicity", "setting": "[2]; 1200 times the anticipated imaging mass dose", "value": "well tolerated and no acute toxicities were found"}, {"measurement": "toxic effects", "setting": "[2]; female rats, single dose 0.04 mg/kg, Study 31, GLP", "value": "No significant toxic effects"}, {"measurement": "toxic effects", "setting": "[2]; male rats, single dose 4 mg/kg, Study 27, GLP", "value": "No significant toxic effects"}, {"measurement": "Uptake", "setting": "Min Mouse Intestinal; Adenocarcinoma", "value": "Yes"}, {"measurement": "survival vs untreated litter mates", "setting": "Min Mouse Intestinal; after 21 days, both intestinal models", "value": "easily outlived their untreated litter mates"}, {"measurement": "feet color (anemia from intestinal bleeding)", "setting": "Min Mouse Intestinal; around 5 days after a single injection, ^125I-labeled, 15-20 μCi/20 g mouse", "value": "reverted to a pink color"}, {"measurement": "intestinal tumors remaining at dissection", "setting": "Min Mouse Intestinal; of the expected 20 or so, ^125I-labeled, 15-20 μCi/20 g mouse", "value": "only a very few, if any"}, {"measurement": "circulating radioactivity associated with the albumin fraction", "setting": "albumin fraction", "value": 88, "unit": "%"}, {"measurement": "Uptake", "setting": "Adenomatous Polyp", "value": "No"}, {"measurement": "Uptake", "setting": "Lung NCI H-69 (Oat Cell)", "value": "Yes"}, {"measurement": "Uptake", "setting": "Subcutaneous CT-26", "value": "Yes"}, {"measurement": "uptake / retention in tumor", "setting": "[3]", "value": "retained in spontaneous murine lung tumors; also recorded: intense uptake"}, {"measurement": "intestinal tumors at dissection", "setting": "[4]", "value": "most, if not all, of the expected intestinal tumors were gone"}, {"measurement": "Uptake", "setting": "Ovarian HTB-77", "value": "Yes"}, {"measurement": "localization in lymph node metastases", "setting": "[5]", "value": "localize in lymph node metastases"}]}]}
